Source: patent US6376209B2, “Increasing the FVII sensitivity of a thromboplastin reagent” (Dade Behring Marburg GmbH, priority 1997, dated 2002)
Read-outs that look alike come from different tables or passages of the source. Where a SMILES comes first, the peptide text is derived from it. [ ]: non-standard residue; d: D form. The star is where a group is joined. Sta = CC(C)C[C@H](N)[C@@H](O)CC(=O)O; Isovaleryl = CC(C)CC(=O)*

Assays:
Format in all cases: biochemical
[1] = test system: Standard human plasma; test: Quick's thromboplastin time (PT), Schnitger & Gross; details: for Coagulation time, Sample: 100%: ascorbic acid 1 mM, stabilization after 6 h (iron: after 1 h)
Protocol: (§1) Quick's thromboplastin time (PT) was then determined using a Schnitger & Gross as follows:
(§2) Heat reagents and tubes to 37° C.;
(§3) Introduce […] of control plasma N or FVII-deficient plasma into the tubes;
(§4) Incubate for 1 min in the thermoblock;
(§5) Add 200 μl of thromboplastin and at the same time start the measuring operation; shake the tube briefly and place it in the measuring position of the Schnitger & Gross, and insert the electrode holder up to the limit stop;
(§6) Read off the coagulation time.
(§7) Quick's thromboplastin time (PT) is then determined using a Schnitger & Gross as follows:
(§8) Introduce 100 μl of plasma into the tubes;
(§9) Add 200 μl of thromboplastin and at the same time start the measuring operation;
(§10) shake the tube briefly, place it in the measuring position of the Schnitger & Gross, and insert the electrode holder up to the limit stop;

[2] = test system: FVII-deficient plasma; test: as above; design: Coagulation time, Sample: FVII: unit not given beside the values; details: for Coagulation time, Sample: FVII / FVII sens.: FVII/100%: ascorbic acid 1 mM, Fe(II)SO4 or CuCl 0.01 mM, stabilization after 6 h (iron: after 1 h); for Coagulation time FVII-MP / FVII sens.: FVII-MP/100%: 0.5 sec; for Coagulation time FVII-MF / FVII-sens. FVII-MP/100%: 0.75 sec, incubated 37° C., 90 min
Protocol: as §1, §2, §3, §4, §5, §6, §7, §8, §9, §10

[3] = test system: control plasma Patho II; test: as above
Protocol: as §7, §2, §8, §4, §9, §10, §6
The spread was calculated from the ratio of the coagulation times for the dilution of the StHPl and the StHPl, and the FVII sensitivity was calculated from the ratio of the coagulation times for FVII-MP and STHPL.
(§11) Standard human plasma, the control plasma Patho II and an FVII-deficient plasma were used as samples. The reagents were stored at 4° C. and 37° C. and the coagulation time was repeated after 7 and 14 days. The spread was calculated from the ratio of the coagulation times of the Patho II and the StHPl, and the FVII sensitivity was calculated from the ratio of the coagulation times for FVII-MP and the STHPL.

[4] = test system: Standard human plasma; test: PT, Behring Coagulation Timer (PT.sec Thromborel S); details: 0.75 sec, incubated 37° C., 90 min
Protocol: (§12) Thromborel S Bulkware according to Example 8a) was short-time heated at a temperature of 120° C. using a dwell time of 0.75 sec and then adjusted to pH 7.5 with 0.16 mM sodium carbonate; different concentrations of chloramine T were subsequently added and the mixtures were incubated at 37° C. for 90 min. Stabilizers and 6 mM acetylcysteine were added to the solution. The pH value was adjusted to 6.5 and the coagulation time was determined using a Behring Coagulation Timer (PT.sec Thromborel S).
as §11, with “samples.” for “samples. The reagents were stored at 4° C. and 37° C. and the coagulation time was repeated after 7 and 14 days.”, “for the” for “for”

[5] = test system: FVII-deficient plasma; test: as above; details: 0.75 sec, incubated 37° C., 90 min
Protocol: as §12
as §11, with “samples.” for “samples. The reagents were stored at 4° C. and 37° C. and the coagulation time was repeated after 7 and 14 days.”, “for the” for “for”

[6] = test system: control plasma Patho II; test: as above; details: 0.75 sec, incubated 37° C., 90 min
Protocol: (§13) The coagulation time was determined using a Behring Coagulation Timer (PT.sec Thromborel S). Standard human plasma, the. control plasma Patho II (Behringwerke AG) and an FVII-deficient plasma were employed as samples. The spread was calculated from the ratio of the coagulation times of the Patho II and the StHPl, and the FVII sensitivity was calculated from the ratio of the coagulation times for FVII-MP and STHPL.
as §13, with “plasma, the” for “plasma, the.”, “II” for “II (Behringwerke AG)”, “spread as” for “spread was”
as §12
as §11, with “samples.” for “samples. The reagents were stored at 4° C. and 37° C. and the coagulation time was repeated after 7 and 14 days.”, “for the” for “for”

[7] = reagent stored 18 h/4° C., ascorbic acid 1 mM, Fe(II)SO4 or CuCl 0.01 mM, stabilization after 6 h (iron: after 1 h)
[8] = reagent stored 7 days 4° C., ascorbic acid 1 mM, Fe(II)SO4 or CuCl 0.01 mM, stabilization after 6 h (iron: after 1 h)
[9] = reagent stored 7 days 37° C., ascorbic acid 1 mM, Fe(II)SO4 or CuCl 0.01 mM, stabilization after 6 h (iron: after 1 h)
[10] = 0.5 mg/l added to Thromborel S heated 95° C.
[11] = 0.001 mM added to Thromborel S heated 120° C.
[12] = 0.01 mM added to Thromborel S heated 120° C.
[13] = 0.1 mM added to Thromborel S heated 120° C.
[14] = 0.01 mM added to Thromborel S heated 95° C., 0.5 sec
[15] = 0.025 mM added to Thromborel S heated 95° C., 0.5 sec
[16] = 0.05 mM added to Thromborel S heated 95° C., 0.5 sec
[17] = 0.1 mM added to Thromborel S heated 95° C., 0.5 sec
[18] = 0.5 mM added to Thromborel S heated 95° C., 0.5 sec
[19] = 0.01 mM added to Thromborel S heated 95° C.
[20] = 0.025 mM added to Thromborel S heated 95° C.
[21] = 0.05 mM added to Thromborel S heated 95° C.
[22] = 0.1 mM added to Thromborel S heated 95° C.
[23] = 0.5 mM added to Thromborel S heated 95° C.
[24] = 1.5 mM added to Thromborel S heated 95° C., 0.5 sec
[25] = 1.5 mM added to Thromborel S heated 95° C.
[26] = 0.00003% added to Thromborel S heated 120° C.
[27] = 0.0003% added to Thromborel S heated 120° C.
[28] = 0.003% added to Thromborel S heated 120° C.
[29] = 0.03% added to Thromborel S heated 120° C.
[30] = 0.3% added to Thromborel S heated 120° C.
[31] = 0.7 mg/l added to Thromborel S heated 95° C., 0.5 sec
[32] = 0.7 mg/l added to Thromborel S heated 95° C.

Compound: O=C1O[C@H]([C@@H](O)CO)C(O)=C1O [ascorbic acid]
- Coagulation time, Sample: 100% ([1]; reagent stored 18 h/4° C., Fe(II)SO4 or CuCl 0.01 mM in Thromborel S heated 85° C., 3 sec): 13.7
- Coagulation time, Sample: 100% ([1]; reagent stored 7 days 4° C., Fe(II)SO4 or CuCl 0.01 mM): 14
- Coagulation time, Sample: 100% ([1]; reagent stored 7 days 37° C., Fe(II)SO4 or CuCl 0.01 mM): 14.7
- Coagulation time, Sample: 100% ([1]; reagent stored 14 days 4° C., Fe(II)SO4 or CuCl 0.01 mM): 14.1
- Coagulation time, Sample: 100% ([1]; reagent stored 14 days 37° C., Fe(II)SO4 or CuCl 0.01 mM): 15.3
- Coagulation time, Sample: FVII ([2]; reagent stored 18 h/4° C.): 157.7
- FVII sens.: FVII/100% ([2]; reagent stored 18 h/4° C.): 11.5
- Coagulation time, Sample: FVII ([2]; reagent stored 7 days 4° C.): 154.3
- FVII sens.: FVII/100% ([2]; reagent stored 7 days 4° C.): 11.0
- Coagulation time, Sample: FVII ([2]; reagent stored 7 days 37° C.): 181.1
- FVII sens.: FVII/100% ([2]; reagent stored 7 days 37° C.): 12.3
- Coagulation time, Sample: FVII ([2]; reagent stored 14 days 4° C.): 161.6
- FVII sens.: FVII/100% ([2]; reagent stored 14 days 4° C.): 11.5
- Coagulation time, Sample: FVII ([2]; reagent stored 14 days 37° C.): 195.8
- FVII sens.: FVII/100% ([2]; reagent stored 14 days 37° C.): 12.8
- Coagulation time, Sample: Patho II [3, 7]: 51.4
- Spread: Patho II/100% [3, 7]: 3.8
- Coagulation time, Sample: Patho II [3, 8]: 51.3
- Spread: Patho II/100% [3, 8]: 3.7
- Coagulation time, Sample: Patho II [3, 9]: 51.5
- Spread: Patho II/100% [3, 9]: 3.5
- Coagulation time, Sample: Patho II ([3]; reagent stored 14 days 4° C., ascorbic acid 1 mM, Fe(II)SO4 or CuCl 0.01 mM, stabilization after 6 h (iron: after 1 h)): 51.1
- Coagulation time, Sample: Patho II ([3]; reagent stored 14 days 37° C., ascorbic acid 1 mM, Fe(II)SO4 or CuCl 0.01 mM, stabilization after 6 h (iron: after 1 h)): 53.1

Compound: CC(=O)N[C@@H](CC(C)C)C(=O)N[C@@H](CC(C)C)C(=O)N[C@H](C=O)CCCNC(=N)N [Leupeptin]
- Coagulation time 100% [1]: 10.6 s
- Coagulation time FVII-MP [2, 10]: 121 s
- FVII sens.: FVII-MP/100% [2, 10]: 11.4
- Coagulation time Patho II [3]: 22.5 s
- Spread: Patho II/100% [3]: 2.1

Compound: Cc1ccc(S(=O)(=O)[N-]Cl)cc1.[Na+] [chloramine T]
- Coagulation time 100% [4, 11]: 11.5 s
- Coagulation time 100% [4, 12]: 11.7 s
- Coagulation time 100% [4, 13]: 13 s
- Coagulation time FV-MP [5, 11]: 140.1 s
- FVII-sens. FVII-MP/100% [5, 11]: 12.2
- Coagulation time FV-MP [5, 12]: 141.6 s
- FVII-sens. FVII-MP/100% [5, 12]: 12.1
- Coagulation time FV-MP [5, 13]: 177.4 s
- FVII-sens. FVII-MP/100% [5, 13]: 13.6
- Coagulation time Patho II [6, 11]: 34.2 s
- Spread Patho II/100% [6, 11]: 3.0
- Coagulation time Patho II [6, 12]: 34.7 s
- Spread Patho II/100% [6, 12]: 3.0
- Coagulation time Patho II [6, 13]: 38.2 s
- Spread Patho II/100% [6, 13]: 2.9

Compound: Nc1ccc(CS(=O)(=O)F)cc1 [pa-PMSF, 4-aminophenylmethanesulfonyl fluoride]
- Coagulation time 100% [1, 14]: 10.6 s
- Coagulation time 100% [1, 15]: 10.6 s
- Coagulation time 100% [1, 16]: 10.6 s
- Coagulation time 100% [1, 17]: 10.7 s
- Coagulation time 100% [1, 18]: 10.8 s
- Coagulation time FVII-MP [2, 19]: 144 s
- FVII sens.: FVII-MP/100% [2, 19]: 13.6
- Coagulation time FVII-MP [2, 20]: 147 s
- FVII sens.: FVII-MP/100% [2, 20]: 13.8
- Coagulation time FVII-MP [2, 21]: 161 s
- FVII sens.: FVII-MP/100% [2, 21]: 15.2
- Coagulation time FVII-MP [2, 22]: 172 s
- FVII sens.: FVII-MP/100% [2, 22]: 16.1
- Coagulation time FVII-MP [2, 23]: 298 s
- FVII sens.: FVII-MP/100% [2, 23]: 27.6
- Coagulation time Patho II [3, 14]: 22.3 s
- Spread: Patho II/100% [3, 14]: 2.1
- Coagulation time Patho II [3, 15]: 21.8 s
- Spread: Patho II/100% [3, 15]: 2.1
- Coagulation time Patho II [3, 16]: 22.2 s
- Spread: Patho II/100% [3, 16]: 2.1
- Coagulation time Patho II [3, 17]: 21.7 s
- Spread: Patho II/100% [3, 17]: 2.0
- Coagulation time Patho II [3, 18]: 23.i
- Spread: Patho II/100% [3, 18]: 2.1

Compound: O=S(=O)(F)Cc1ccccc1 [PMSF, phenylmethylsulfonyl fluoride]
- Coagulation time 100% [1, 24]: 10.7 s
- Coagulation time FVII-MP [2, 25]: 259 s
- FVII sens.: FVII-MP/100% [2, 25]: 24.2
- Coagulation time Patho II [3, 24]: 21.9 s
- Spread: Patho II/100% [3, 24]: 2.0

Compound: OO [H2O2]
- Coagulation time 100% ([1]; 0.00003% added to Thromborel S heated 120° C., 0.75 sec, incubated 37° C., 90 min): 11.9 s
- Coagulation time 100% ([1]; 0.0003% added to Thromborel S heated 120° C., 0.75 sec, incubated 37° C., 90 min): 11.7 s
- Coagulation time 100% ([1]; 0.003% added to Thromborel S heated 120° C., 0.75 sec, incubated 37° C., 90 min): 11.4 s
- Coagulation time 100% ([1]; 0.03% added to Thromborel S heated 120° C., 0.75 sec, incubated 37° C., 90 min): 11.5 s
- Coagulation time 100% ([1]; 0.3% added to Thromborel S heated 120° C., 0.75 sec, incubated 37° C., 90 min): 15 s
- Coagulation time FVII-MF [2, 26]: 132 s
- FVII-sens. FVII-MP/100% [2, 26]: 11.1
- Coagulation time FVII-MF [2, 27]: 133 s
- FVII-sens. FVII-MP/100% [2, 27]: 11.4
- Coagulation time FVII-MF [2, 28]: 139 s
- FVII-sens. FVII-MP/100% [2, 28]: 12.2
- Coagulation time FVII-MF [2, 29]: 143 s
- FVII-sens. FVII-MP/100% [2, 29]: 12.4
- Coagulation time FVII-MF [2, 30]: 156 s
- FVII-sens. FVII-MP/100% [2, 30]: 10.4

Compound: CC(C)CC(=O)N[C@H](C(=O)N[C@H](C(=O)N[C@@H](CC(C)C)[C@@H](O)CC(=O)N[C@@H](C)C(=O)N[C@@H](CC(C)C)[C@@H](O)CC(=O)O)C(C)C)C(C)C [Pepstatin] (Isovaleryl-VV[Sta]A[Sta]-OH)
- Coagulation time 100% [1, 31]: 10.6 s
- Coagulation time FVII-MP [2, 32]: 115 s
- FVII sens.: FVII-MP/100% [2, 32]: 10.9
- Coagulation time Patho II [3, 31]: 21.6 s
- Spread: Patho II/100% [3, 31]: 2.0
